ChEMBL document CHEMBL1201862, “PubChem BioAssay data set” (2004)
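Assay format: 96-well plates, 48-hour exposure. The concentration for 50% growth inhibition is given as GI50.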 Activity calls are given as the source filed them. Rule as the data show it: active = GI50 up to about 1.1 µM and inactive = higher.

Assays:
Assay in all cases: NCI-60 cell line screen, 48 h
SK-OV-3 = test system: SK-OV-3
SF-295 = test system: SF-295
MCF7 = test system: MCF7
SK-MEL-2 = test system: SK-MEL-2
SK-MEL-5 = test system: SK-MEL-5
SK-MEL-28 = test system: SK-MEL-28
NCI-H460 = test system: NCI-H460
MDA-MB-231 = test system: MDA-MB-231
UO-31 = test system: UO-31
MDA-MB-435 = test system: MDA-MB-435
SW-620 = test system: SW-620
CCRF-CEM = test system: CCRF-CEM
CAKI-1 = test system: CAKI-1
NCI-H522 = test system: NCI-H522
DU-145 = test system: DU-145
SF-539 = test system: SF-539
UACC-62 = test system: UACC-62
MDA-N = test system: MDA-N
RPMI-8226 = test system: RPMI-8226
MOLT-4 = test system: MOLT-4

Measured: GI50

O=C(c1cc(Cl)cc(Cl)c1)N(C(=S)OC12CC3CC(CC(C3)C1)C2)c1ccccc1
inactive: SK-OV-3 32.5 µM | SF-295 34.5 µM | MCF7 30.1 µM | SK-MEL-2 19.4 µM | SK-MEL-5 28.3 µM | SK-MEL-28 59.4 µM | NCI-H460 35.3 µM | MDA-MB-231 38.6 µM | UO-31 25.1 µM | MDA-MB-435 42.2 µM | SW-620 39.5 µM | CCRF-CEM 5.24 µM | CAKI-1 42.1 µM | NCI-H522 16 µM | DU-145 75.2 µM | SF-539 40 µM | UACC-62 32.6 µM | MDA-N 31.8 µM

Cc1c(O)c(=O)ccn1CCc1ccc(O)cc1
inactive: SK-OV-3 24.8 µM | SF-295 24.3 µM | MCF7 23.9 µM | SK-MEL-5 21.3 µM | SK-MEL-28 38.4 µM | NCI-H460 17.1 µM | RPMI-8226 14.7 µM | MDA-MB-231 2.2 µM | MOLT-4 26.8 µM | MDA-MB-435 42.2 µM | SW-620 44.8 µM | CCRF-CEM 10 µM | CAKI-1 4.52 µM | DU-145 24.9 µM | SF-539 29.4 µM | MDA-N 11.9 µM
active: UACC-62 0.615 µM

O=C(O)c1nc2ccc(C(F)(F)F)cc2nc1NCc1ccc(Cl)c(Cl)c1
inactive: SK-OV-3 19.4 µM | SF-295 17.4 µM | MCF7 17.8 µM | SK-MEL-2 12.5 µM | SK-MEL-5 21.4 µM | SK-MEL-28 17.6 µM | NCI-H460 16 µM | RPMI-8226 27.7 µM | MDA-MB-231 16.8 µM | MOLT-4 12.3 µM | UO-31 13.4 µM | MDA-MB-435 15.6 µM | SW-620 19.4 µM | CCRF-CEM 23.4 µM | CAKI-1 19.2 µM | DU-145 17 µM | SF-539 19.5 µM | UACC-62 17.1 µM | MDA-N 19.6 µM

C[C@H]1CCCCC[C@@H]2CC(=O)CC2C(=O)CCC(=O)O1 (stereo partly drawn)
inactive: SF-295 > 100 µM | MCF7 > 100 µM | SK-MEL-5 > 100 µM | SK-MEL-28 > 100 µM | NCI-H460 > 100 µM | RPMI-8226 > 100 µM | MDA-MB-231 > 100 µM | MOLT-4 > 100 µM | MDA-MB-435 > 100 µM | SW-620 > 100 µM | CCRF-CEM > 100 µM | NCI-H522 > 100 µM | DU-145 > 100 µM | SF-539 > 100 µM | UACC-62 6.68 µM | MDA-N > 100 µM

O=C(O)c1nc2ccc(C(F)(F)F)cc2nc1Nc1ccc(Cl)c(Cl)c1
inactive: SF-295 4.36 µM | MCF7 14.3 µM | SK-MEL-2 2.31 µM | SK-MEL-5 10.6 µM | SK-MEL-28 13 µM | NCI-H460 7.41 µM | MDA-MB-231 6.05 µM | MOLT-4 4.37 µM | UO-31 4.48 µM | MDA-MB-435 5.74 µM | SW-620 8.15 µM | CAKI-1 15.5 µM | NCI-H522 2.95 µM | DU-145 9.68 µM | UACC-62 2.3 µM | MDA-N 6.73 µM

COc1ccc(/C=C2\CCC(C)C3=C(c4ccc(OC)c(OC)c4)C(C#N)=C(N)OC32)cc1OC (stereo not drawn)
inactive: SK-OV-3 3.42 µM | SF-295 3.43 µM | MCF7 3.26 µM | SK-MEL-2 1.97 µM | SK-MEL-5 2.01 µM | SK-MEL-28 3.86 µM | NCI-H460 3.03 µM | RPMI-8226 2.04 µM | MDA-MB-231 2.95 µM | MOLT-4 2.55 µM | UO-31 2.4 µM | MDA-MB-435 2.7 µM | SW-620 4.29 µM | CCRF-CEM 2.28 µM | CAKI-1 4.36 µM | DU-145 5.5 µM | SF-539 1.55 µM | UACC-62 2.86 µM | MDA-N 3.45 µM

c1cc(CSP234N5CCN2CCN3CCN4CC5)cc(CSP234N5CCN2CCN3CCN4CC5)c1
inactive: SF-295 14.2 µM | MCF7 25.8 µM | SK-MEL-2 19.2 µM | SK-MEL-5 16.3 µM | SK-MEL-28 18.8 µM | NCI-H460 26.6 µM | RPMI-8226 14.5 µM | MDA-MB-231 14.8 µM | MOLT-4 15.7 µM | UO-31 13.9 µM | MDA-MB-435 22.6 µM | SW-620 28.8 µM | CCRF-CEM 16.5 µM | CAKI-1 > 100 µM | NCI-H522 16.9 µM | DU-145 > 100 µM | SF-539 22.9 µM | UACC-62 16.8 µM | MDA-N 28.1 µM

O=C(c1ccccc1)N1CCN(C(=S)NC2CCCCC2)C1=S
inactive: SK-OV-3 25.7 µM | SF-295 20.9 µM | MCF7 22.8 µM | SK-MEL-2 4.58 µM | SK-MEL-5 17.4 µM | SK-MEL-28 14.9 µM | NCI-H460 21.4 µM | MDA-MB-231 7.03 µM | MOLT-4 17.5 µM | UO-31 16.1 µM | MDA-MB-435 19.5 µM | SW-620 21.6 µM | CCRF-CEM 12.2 µM | CAKI-1 24 µM | NCI-H522 15.8 µM | DU-145 21.8 µM | SF-539 13.5 µM | UACC-62 19.3 µM | MDA-N 19.4 µM
